Measurements reported in PubChem BioAssay AID1919008 (Molecular Pharmacology Branch, DTP, NCI, 2023).
pIC50: −log10 of the molar value.

Test system: DMS-114 complex spheroids with HUVEC/MSC, growth % test/control
Experiment: Anticancer human tumor DMS-114 cell line growth inhibition [AhR];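 further: spheroids exposed to agents for 7 days before readout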;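 on viability, T/C: 100% = DMSO vehicle control wells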
Details: for pIC50: curve of first compound; for viability, T/C: stronger effect = lower value; active means viability on the fitted dose curve at most 10% of control; inactive means the rest
Source text: Multicellular complex tumor spheroid response to aryl hydrocarbon receptor antagonists in combination with a variety of drugs and investigational agents in selected tumor cell lines
The current study was undertaken to assess response to aryl hydrocarbon receptor antagonists in combination with standard-of-care drugs and investigational agents in solid tumor complex spheroid models. Complex spheroids include a stromal component modeled by human endothelial cells (HUVEC) and fibroblasts modeled by human mesenchymal stem cells (MSCs). The concentration ranges selected for each drug and investigational agent were based upon clinically achievable concentrations if the clinical Cmax of the agent was known.
Compounds. The drugs and investigational agents: BAY 2416964 (NSC825713), GNF351 (NSC835774), CH-223191 (NSC835775), CPI-455 (NSC825282), aza-TdCyd (NSC777586), decitabine (NSC127716), belinostat (NSC758774), entinostat (NSC756642), pevonedistat (NSC761192), tazemetostat (NSC777109), talazoparib (NSC765396), olaparib (NSC753686), selinexor (NSC780203), nedisertib (M3814, NSC802822), bortezomib (NSC756655), venetoclax (NSC766270), doxorubicin (NSC123127), elimusertib (BAY189344, NSC800525), ceralasertib (AZD6738, NSC777638), TAK-243 (NSC785004), alisertib (NSC759677), etoposide (NSC141540), topotecan (NSC609699), eribulin (NSC707389), gemcitabine (NSC613327), carboplatin (NSC241240), cisplatin (NSC119875), and SN-38 (NSC673596) were obtained from the National Cancer Institute (NCI) Developmental Therapeutics Program Chemical Repository (32). The FDA-approved anticancer drug set is available from the Developmental Therapeutics Program at https://dtp.cancer.gov/organization/dscb/obtaining/available plates.htm. […] The stock solutions were prepared in dimethyl sulfoxide (DMSO, Sigma-Aldrich, St. Louis, MO, cat. D2650), except for the platinum compounds which were prepared in saline (Quality Biological, Gaithersburg, MD, cat. 114-055-101), at 800-fold the tested concentration and stored at -70 degrees C prior to their use. All drugs and investigational agents were tested over a range starting from a high concentration at or near the clinical Cmax and decreasing in half-log increments. If the clinical Cmax for an agent had not been determined, the highest concentration tested was 10 microM (Table 1).
Cell Culture. All cells were maintained in an incubator at 37 degrees C and 5% CO2 with 95% humidity. The PDC lines were cultured according to standard operating procedures established by the NCI PDMR (https://pdmr.cancer.gov). Briefly, all PDCs were thawed and cultured in Matrigel-coated flasks prepared with a working solution of 1X Ham's F-12 nutrient mix, without supplementation (Invitrogen, Waltham, MA, cat. 11765054), 100 U/mL penicillin-streptomycin (Invitrogen, cat. 15140122), and 2.5% Matrigel (Corning Inc., Corning, NY, cat. 354248) for the first three passages. All PDCs were cultured in complete DMEM/F-12 media containing advanced DMEM/F-12 (Invitrogen, cat. 12634028), 4.9% defined fetal bovine serum, heat inactivated (HyClone Laboratories Inc., Logan, UT, cat. SH30070.03HI), 389 ng/mL hydrocortisone (Sigma-Aldrich, cat. H4001), 9.7 ng/mL human EGF recombinant protein (Invitrogen, cat. PHG0313), 23.4 microg/mL adenine (Sigma-Aldrich, cat. A2786), 97.3 U/mL penicillin-streptomycin (Invitrogen, cat. 15140122), 1.9 mM L-glutamine (Invitrogen, cat. 25030081), and 9.7 microM Y-27632 dihydrochloride (Tocris Bioscience, Bristol, United Kingdom, cat. 1254). The PDCs were cultured in complete DMEM/F12 media without 10 microM Y-27632 dihydrochloride for at least two passages prior to the screen. The established cell lines NCI-H1341 and […] were cultured in DMEM/F-12, HEPES (Invitrogen, cat. 11330032), 5% defined fetal bovine serum (HyClone Laboratories Inc., cat. SH30070.03), ITS premix universal culture supplement [insulin (5 microg/mL), transferrin (5 microg/mL), and selenious acid (5 ng/mL)] […]

[1] = second compound 0.1 µM, first compound 0.0316 µM
[2] = second compound 0.1 µM, first compound 0.1 µM
[3] = second compound 0.1 µM, first compound 0.316 µM
[4] = second compound 0.1 µM, first compound 1 µM
[5] = second compound 0.1 µM, first compound 3.16 µM
[6] = second compound 0.1 µM, first compound 10 µM
[7] = second compound 0.316 µM, first compound 0.0316 µM
[8] = second compound 0.316 µM, first compound 0.1 µM
[9] = second compound 0.316 µM, first compound 0.316 µM
[10] = second compound 0.316 µM, first compound 1 µM
[11] = second compound 0.316 µM, first compound 3.16 µM
[12] = second compound 0.316 µM, first compound 10 µM
[13] = second compound 1 µM, first compound 0.0316 µM
[14] = second compound 1 µM, first compound 0.1 µM
[15] = second compound 1 µM, first compound 0.316 µM
[16] = second compound 1 µM, first compound 1 µM
[17] = second compound 1 µM, first compound 3.16 µM
[18] = second compound 1 µM, first compound 10 µM
[19] = second compound 3.16 µM, first compound 0.0316 µM
[20] = second compound 3.16 µM, first compound 0.1 µM
[21] = second compound 3.16 µM, first compound 0.316 µM
[22] = second compound 3.16 µM, first compound 1 µM
[23] = second compound 3.16 µM, first compound 3.16 µM
[24] = second compound 3.16 µM, first compound 10 µM
[25] = second compound 10 µM, first compound 0.0316 µM
[26] = second compound 10 µM, first compound 0.1 µM
[27] = second compound 10 µM, first compound 0.316 µM
[28] = second compound 10 µM, first compound 1 µM
[29] = second compound 10 µM, first compound 3.16 µM
[30] = second compound 10 µM, first compound 10 µM

CC1(C)CCC(CN2CCN(c3ccc(C(=O)NS(=O)(=O)c4ccc(NCC5CCOCC5)c([N+](=O)[O-])c4)c(Oc4cnc5[nH]ccc5c4)c3)CC2)=C(c2ccc(Cl)cc2)C1 + CC(CO)NC(=O)c1cc(-c2ccc(Cl)cc2)nn(-c2cnn(C)c2)c1=O
inactive: viability, T/C [1] 99.3% | viability, T/C [2] 101% | viability, T/C [3] 107% | viability, T/C [4] 93.1% | viability, T/C [5] 104% | viability, T/C [6] 67.2% | viability, T/C [7] 95.7% | viability, T/C [8] 114% | viability, T/C [9] 104% | viability, T/C [10] 87.6% | viability, T/C [11] 92.3% | viability, T/C [12] 73.4% | viability, T/C [13] 93.1% | viability, T/C [14] 92.2% | viability, T/C [15] 94% | viability, T/C [16] 119% | viability, T/C [17] 102% | viability, T/C [18] 68.2% | viability, T/C [19] 101% | viability, T/C [20] 101% | viability, T/C [21] 91.3% | viability, T/C [22] 95.8% | viability, T/C [23] 93% | viability, T/C [24] 71.3% | viability, T/C [25] 104% | viability, T/C [26] 93% | viability, T/C [27] 95.6% | viability, T/C [28] 106% | viability, T/C [29] 104% | viability, T/C [30] 64.7%
< 5.00: pIC50 (second compound 0.1 µM) | pIC50 (second compound 0.316 µM) | pIC50 (second compound 1 µM) | pIC50 (second compound 3.16 µM) | pIC50 (second compound 10 µM)

COc1cc(Nc2ncc3c(n2)-c2ccc(Cl)cc2C(c2c(F)cccc2OC)=NC3)ccc1C(=O)O + CC(CO)NC(=O)c1cc(-c2ccc(Cl)cc2)nn(-c2cnn(C)c2)c1=O
> 7.50: pIC50 (second compound 0.1 µM) | pIC50 (second compound 0.316 µM) | pIC50 (second compound 1 µM) | pIC50 (second compound 3.16 µM) | pIC50 (second compound 10 µM)
inactive: viability, T/C [1] 24.8% | viability, T/C [2] 25.1% | viability, T/C [3] 63.5% | viability, T/C [4] 53.1% | viability, T/C [5] 69.2% | viability, T/C [6] 54.8% | viability, T/C [7] 28.4% | viability, T/C [8] 25.6% | viability, T/C [9] 58% | viability, T/C [10] 72% | viability, T/C [11] 63.7% | viability, T/C [12] 65.5% | viability, T/C [13] 25.8% | viability, T/C [14] 23.3% | viability, T/C [15] 63.6% | viability, T/C [16] 58.3% | viability, T/C [17] 61.4% | viability, T/C [18] 59.8% | viability, T/C [19] 26.2% | viability, T/C [20] 21.2% | viability, T/C [21] 65.6% | viability, T/C [22] 62.3% | viability, T/C [23] 73.6% | viability, T/C [24] 64.6% | viability, T/C [25] 25.6% | viability, T/C [26] 24.2% | viability, T/C [27] 50.6% | viability, T/C [28] 61.5% | viability, T/C [29] 58.9% | viability, T/C [30] 66.9%

Cn1ncnc1C1c2n[nH]c(=O)c3cc(F)cc(c23)NC1c1ccc(F)cc1 (stereo not given) + CC(CO)NC(=O)c1cc(-c2ccc(Cl)cc2)nn(-c2cnn(C)c2)c1=O
< 7.00: pIC50 (second compound 0.1 µM) | pIC50 (second compound 0.316 µM) | pIC50 (second compound 1 µM) | pIC50 (second compound 3.16 µM) | pIC50 (second compound 10 µM)
inactive: viability, T/C (second compound 0.1 µM, first compound 0.000316 µM) 103% | viability, T/C (second compound 0.1 µM, first compound 0.001 µM) 95% | viability, T/C (second compound 0.1 µM, first compound 0.00316 µM) 101% | viability, T/C (second compound 0.1 µM, first compound 0.01 µM) 102% | viability, T/C [1] 97.2% | viability, T/C [2] 82% | viability, T/C (second compound 0.316 µM, first compound 0.000316 µM) 105% | viability, T/C (second compound 0.316 µM, first compound 0.001 µM) 95.5% | viability, T/C (second compound 0.316 µM, first compound 0.00316 µM) 103% | viability, T/C (second compound 0.316 µM, first compound 0.01 µM) 84.7% | viability, T/C [7] 82% | viability, T/C [8] 84.1% | viability, T/C (second compound 1 µM, first compound 0.000316 µM) 103% | viability, T/C (second compound 1 µM, first compound 0.001 µM) 116% | viability, T/C (second compound 1 µM, first compound 0.00316 µM) 109% | viability, T/C (second compound 1 µM, first compound 0.01 µM) 92.1% | viability, T/C [13] 84% | viability, T/C [14] 101% | viability, T/C (second compound 3.16 µM, first compound 0.000316 µM) 107% | viability, T/C (second compound 3.16 µM, first compound 0.001 µM) 105% | viability, T/C (second compound 3.16 µM, first compound 0.00316 µM) 109% | viability, T/C (second compound 3.16 µM, first compound 0.01 µM) 96.4% | viability, T/C [19] 94.8% | viability, T/C [20] 85.7% | viability, T/C (second compound 10 µM, first compound 0.000316 µM) 94.3% | viability, T/C (second compound 10 µM, first compound 0.001 µM) 106% | viability, T/C (second compound 10 µM, first compound 0.00316 µM) 104% | viability, T/C (second compound 10 µM, first compound 0.01 µM) 98.8% | viability, T/C [25] 78.1% | viability, T/C [26] 72.2%

NS(=O)(=O)OCC1CC(n2ccc3c(NC4CCc5ccccc54)ncnc32)CC1O (stereo not given) + CC(CO)NC(=O)c1cc(-c2ccc(Cl)cc2)nn(-c2cnn(C)c2)c1=O
7.48: pIC50 (second compound 3.16 µM)
inactive: viability, T/C [1] 39.8% | viability, T/C [2] 35.6% | viability, T/C [3] 16% | viability, T/C [4] 11% | viability, T/C [7] 53.4% | viability, T/C [8] 32.2% | viability, T/C [9] 17.7% | viability, T/C [10] 9.64% | viability, T/C [13] 47.9% | viability, T/C [14] 35.5% | viability, T/C [15] 16.3% | viability, T/C [19] 50.6% | viability, T/C [20] 34.8% | viability, T/C [21] 17.8% | viability, T/C [22] 11.7% | viability, T/C [25] 49.4% | viability, T/C [26] 40% | viability, T/C [27] 18.3% | viability, T/C [28] 10.8%
active: viability, T/C [5] 7.57% | viability, T/C [6] 6.46% | viability, T/C [11] 8.09% | viability, T/C [12] 6.7% | viability, T/C [16] 12.2% | viability, T/C [17] 7.56% | viability, T/C [18] 7.46% | viability, T/C [23] 8.81% | viability, T/C [24] 6.82% | viability, T/C [29] 8.39% | viability, T/C [30] 8.61%
7.42: pIC50 (second compound 0.316 µM)
> 7.50: pIC50 (second compound 0.1 µM) | pIC50 (second compound 1 µM) | pIC50 (second compound 10 µM)
